Test results from article PMC5396162, “Self‐Assembled Bifunctional Peptide as Effective Drug Delivery Vector with Powerful Antitumor Activity” (Advanced Science, 2017).

Legend:
A549 cells [1] = experiment: Microtubule formation (α-tubulin fluorescence microscopy); assay type: cell-based, human; settings: A549, 4 h
Description: Agents targeting microtubules are often used in cancer therapy. The taxanes act to stabilize microtubules and dampen microtubule dynamics to prevent the normal formation of mitotic spindles.34 Both paclitaxel and DOC can bind to β‐tubulin in assembled tubulin, thereby reducing depolymerization and leading to cell death.35 Therefore, we examined the effects of DOC on microtubule formation and cell apoptosis on A549 cells. […] However, at 10 × 10^−9 M, DOC begins to arrest A549 cells by interfering with the assembling/disassembling microtubule spindle.
Figure 5 The effects of DOC on the microtubule formation on the A549 cell lines. A549 cells were seeded on coverslip and treated with docetaxel of indicated concentrations for 4 h. The microtubule was determined by fluorescence microscopy. The red indicates the α‐tubulin and the blue is the DAPI stain for DNA. Scale bar: 20 µm.
For the expression and localization of α‐tubulin, cells were incubated with the antibodies against α‐tubulin (Abcam, USA) followed by incubation with TRITC‐conjugated secondary antibodies. The images were obtained using a confocal microscope (DM6000 CS, Leica, Germany).

A549 cells [2] = experiment: Cell apoptosis assay (Annexin V-FITC/PI flow cytometry); assay type: cell-based, human; settings: A549, 24 h
Method: Given the effectiveness of transporting hydrophobic drug‐DOC into A549 cancer cells by the bifunctional peptide NPs, we carried out the cytotoxicity experiments to further evaluate the anticancer activity of DOC/peptide NPs on A549 by Flow cytometry analysis. Flow cytometry analysis was performed to monitor the percentage of cell apoptosis after the cells being stained by Annexin V‐Fluorescein isothiocyanate/propidium iodide (Annexin V‐FITC/PI) apoptosis detection kit, and A549 cells incubated in media only were used as control (Figure 6 A). The percentage of apoptosis of A549 cells (early and late apoptosis) incubated for 24 h with DOC/peptide containing DOC 5 × 10^−9 and 10 × 10^−9 M were 11.56 ± 0.91% and 20.66 ± 1.89%, respectively. For free DOC, they were 8.87 ± 0.79% and 15.73 ± 0.56%, respectively. Obviously, DOC‐loaded bifunctional peptide NPs induced significant cell apoptosis.
To investigate the apoptotic effect of the DOC/peptide NPs, flow cytometry was performed using an ESP Elite flow cytometer (BeckmaneCoulter, Miami, FL, USA) with FITC‐conjugated Annexin V/propidium iodide (PI, BD PharMingen) staining as per the manufacturer's instructions. A549 cells cultured in 6‐well plates were treated with DOC/peptide NPs, free DOC, and blank peptide. […] Both early apoptotic (Annexin V‐positive, PI‐negative) and late apoptotic (Annexin V‐positive and PI‐positive) cells were measured.

[3] = In vitro release of DOC in PBS pH 7.4; assay type: physicochemical; settings: PBS pH 7.4, within 24 h
Description: The mass spectrum of the HRK‐19 peptide was shown in Figure S1 of the Supporting Information. And it can be seen the mass of HRK‐19 peptide was 1959.80 g mol^−1, which was consistent with the theoretical mass (1959.20 g mol^−1). The HRK‐19 peptide had ≥95% purity, as confirmed by analytical reversed‐phase (RP)‐high performance liquid chromatography (HPLC) (Figure S2, Supporting Information). As shown in Figure S3 of the Supporting Information, the HRK‐19 peptide contains no apparent secondary structure such as helix and Beta turn. […] To prepare a tumor‐targeting peptide, in this study, Asn‐Gly‐Arg‐Arg‐Gly‐Asp (NGRRGD) and three amino acids (HAV) were conjugated with apoptosis‐inducing peptide sequence AVPIAQK, forming bifunctional peptide (HRK‐19 peptide, HAVRNGRRGDGGAVPIAQK). As shown schematically in Figure 2 A, self‐assembly of the DOC/peptide NPs was prepared by the film dispersion method. […] It can be seen that the DL, and particle size increased with increase of drug/copolymer ratio in feed, whereas, the EE decreased accordingly. In consideration of DL and stability, the sample of S2 was chose for further applications and was characterized in detail. The DL and EE of DOC were 4.52 ± 0.18% and 90.50 ± 3.68%. […]

Peak release of DOC, % of the total drug [3]: 85.37 ± 1.83%
Compound: CC(=O)O[C@@]12CO[C@@H]1C[C@H](O)[C@@]1(C)C(=O)[C@H](O)C3=C(C)[C@@H](OC(=O)[C@H](O)[C@@H](NC(=O)OC(C)(C)C)c4ccccc4)C[C@@](O)([C@@H](OC(=O)c4ccccc4)[C@H]21)C3(C)C [DOC, Docetaxel]
Concentration at which DOC begins to arrest cells by interfering with the microtubule spindle (A549 cells [1]): 10 nM | Percentage of apoptosis (early and late apoptosis) (A549 cells [2]; DOC 5 × 10^−9 M): 8.87 ± 0.79% | Percentage of apoptosis (early and late apoptosis) (A549 cells [2]; DOC 10 × 10^−9 M): 15.73 ± 0.56%
